Data taken from patent US20200113982A1, “Composition and Uses Thereof” (Arborvitae Health and Wellbeing Pty. Ltd., priority 2015, published 2020).

Assay: Case Study 5: Patient A, high cholesterol, blood tests
Type: in vivo, human
Details: patient-reported, earlier statin use
Experimental: Patient A is a person who has had high cholesterol for approximately 20 years, and who is reasonably fit and is not overweight.
Patient A has been taking 100 mL of the composition of Example 1 each day for a period of 3 weeks. The results of a blood test on 14 Jan. 2015 (prior to taking the composition of Example 1) and a blood test on 24 Jun. 2015 (after taking the composition of Example 1 for 3 weeks) gave the results in Table 6: […]

With `CC(C)c1c(C(=O)Nc2ccccc2)c(-c2ccccc2)c(-c2ccc(F)cc2)n1CC[C@@H](O)C[C@@H](O)CC(=O)O` [Lipitor] the side effects was “muscle aches and pain, tiredness, joint pain and a general feeling of not being well”.
